Consider 4 molecules from patent US20120149080A1, “YEAST PRODUCTION CULTURE FOR THE PRODUCTION OF BUTANOL” (Butamax(TM) Advanced Biofuels LLC, priority 2010, published 2012).

Read-outs that look alike come from different tables or passages of the source. Bounds are passed on as bounds.

For test [1], the system named is Saccharomyces cerevisiae BY4743. Nature of the test: 24 hour survival (CFU) at low and high cell density. Format: cell-based. The method, then: Saccharomyces cerevisiae BY4743 (ATCC 201390) was plated from a freezer vial onto YPD agar (Teknova, Hollister, Calif.; Cat. #Y1000) and incubated overnight at 30° C. Cells from the YPD plate were inoculated into a 25 ml pre-culture of YPD broth (Teknova; Cat. #Y5000) with an initial OD600 of 0.06 to 0.08. The pre-culture was grown for 7 hours in an aerobic shaker at 30° C. An aliquot of the pre-culture was inoculated into 200 ml of YPD broth, with an initial OD600 of 0.06 to 0.08, and this culture was incubated with aeration at 30° C. for approximately 17 hours. The optical density of the culture was measured, the culture was centrifuged and the cells were resuspended to yield an OD600 of 5 in fresh YPD broth. This is referred to as a high cell density (HCD) culture. […] This is referred to as a low the cell density (LCD) culture. These cultures were incubated at 30° C. with shaking for 30 minutes for an acclimation period. At the end of the 30 minute acclimation period, the OD600 was measured. 5 ml of low or high cell density culture was dispensed to 15 ml conical tubes which contained different concentrations of the alcohol to be tested. A control tube included no alcohol. The tubes were placed in a rotary drum at 30° C. and incubated for 24 hours. The time of addition of cells was referred to as “time 0”. […] Colony forming units (CFUs) were determined on YPD plates at time 0 for the control and at 24 hours for each of the cultures, including the control culture, using standard microbiological methods. […] Colonies were counted after 48 hours, and CFUs/ml were calculated. At time 0, the low cell density cultures had about 4.8×10^5 CFUs/ml, and the high cell density cultures had about 5.4×10^7 CFUs/ml.

The subject of test [2] is Yeast cultures. Conditions: 1% butanol. The protocol:
Survival was measured by assaying the number of colony forming units (CFU), which is a measure of live cells.

[3] abbreviates: 2.0% (w/v) alcohol, high cell density.
The mark [4] stands for this setting: 2.0% (w/v) alcohol, low cell density.

With `CCC(C)O` (centres unmarked) [2-Butanol, 2-butanol], the “Percent Survival HCD (%)” value in test [1] (setting [3]) is recorded as 27.6%; in test [1] (3% (w/v) alcohol, high cell density), 18.9%; in test [1] (3.5% (w/v) alcohol, high cell density) it was below 0.001%. For the same molecule, the “Percent Survival LCD (%)” value is 0.3% in test [1] (setting [4]); 0.1% in test [1] (3% (w/v) alcohol, low cell density); below 0.001% in test [1] (3.5% (w/v) alcohol, low cell density).
For `CCO` [Ethanol, ethanol], the “Percent Survival HCD (%)” value came out at 62.5% in test [1] (setting [3]); 50.2% in test [1] (4% (w/v) alcohol, high cell density); 38.9% in test [1] (5% (w/v) alcohol, high cell density). The “Percent Survival LCD (%)” value is given as 100.0% in test [1] (setting [4]); 100.0% in test [1] (4% (w/v) alcohol, low cell density); 25.3% in test [1] (5% (w/v) alcohol, low cell density).
butanol: the “survival rate compared to control culture without butanol” value in test [2] (high cell density cultures) was “at least 40%”; in test [2] (low cell density cultures (100-fold fewer cells)), “up to 13%”.
As for `CCCCO` [1-Butanol, 1-butanol], the “Percent Survival HCD (%)” value in test [1] (1.0% (w/v) alcohol, high cell density OD600 5) was 72.2%; in test [1] (1.5% (w/v) alcohol, high cell density) it was 57.3%; in test [1] (setting [3]), 3.6%. Also, the “Percent Survival LCD (%)” value in test [1] (1.0% (w/v) alcohol, low cell density OD600 0.05) stood at 1.3%; in test [1] (1.5% (w/v) alcohol, low cell density), 0.4%; in test [1] (setting [4]), 0.1%.
